From patent publication US20090258069A1, “Delivery of LFA-1 antagonists to the gastrointestinal system” (priority 2008, published 2009)

Tests used:
in vivo [1] = settings: rat, iv
Solubility studies = assay type: physicochemical
in vivo [2] = settings: rabbit, topical or ocular
[3] = Single dose ocular and IV ADME with [^14C]-Compound 12 in rats, quantitative whole body autoradiography; assay type: in vivo, rat; settings: for Compound 12 Concentration, Aqueous humor / Compound 12 Concentration, Conjunctiva (bulbar) / Compound 12 Concentration, Conjunctiva (palpebral) / Compound 12 Concentration, Cornea / Compound 12 Concentration, Iris-ciliary body / Compound 12 Concentration, Lens / Compound 12 Concentration, Optic Nerve / Compound 12 Concentration, Retina and Choroid (with RPE) / Compound 12 Concentration, Sclera / Compound 12 Concentration, Vitreous Humor: ocular dosing in rats; for excretion in feces, of the administered radioactivity: 0 to 168 hours postdose
Protocol: Quantitative whole body […] assessments were performed.
Little or no drug is observed in systemic distribution.

[4] = Tear PK after a single topical ocular instillation in rabbits
[5] = Single dose ocular and IV ADME with [^14C]-Compound 12 in dogs; assay type: in vivo, dog
Excerpt: Following an ocular dose, the highest average [^14C]-Compound 12 levels were detected in anterior ocular tissues (see FIG. 16). […] No differences in results from male and female dogs were observed.

in vivo [6] = settings: topical or ocular
[7] = Plasma PK after a single topical ocular instillation (dogs and rabbits)
dogs (beagles) = test: Cardiovascular effects in conscious telemetry-instrumented dogs, IV bolus; assay type: in vivo, dog; settings: IV bolus injection
[8] = Skin transport studies on microtomed human skin; assay type: in vitro ADME; settings: 1% (w/w) prototypes; [^14C]-Compound 12
Excerpt: Prototypes have been developed and tested on microtomed human skin from elective surgery at 1% (w/w). The forms include gels, ointment, or lotion. […] Skin transport studies performed with LC/MS/MS analysis indicate high Compound 12 levels in epidermis and dermis and low levels in the receiver.

dogs = test: 13-week ocular toxicity study in dogs with 4-week recovery (with TK); settings: (3%)
CD-1 (ICR) BR mice = test: In vivo mouse bone marrow micronucleus assay; settings: repeated IV administrations
healthy adults = test: Phase 1 clinical trial of Compound 12 Ophthalmic Solution, safety and tolerability; assay type: in vivo, human
Excerpt: The objectives of the trial were to measure safety and tolerability, and pharmacokinetics in tear and plasma. The dosing schedule (OU; Oculus Uterque (each eye or both eyes)) was divided into 3 periods, each separated by a 72-hour wash out interval: once/day×1 day (drug one eye; placebo fellow eye), twice/day×10 days, and thrice/day×10 days, 14-day observation. Slit lamp examination of the eye, BCVA (Best Corrected Visual Acuity), STTs (Schirmer Tear Test), TBUT (Tear Break-Up Time), IOP (Intraocular pressure) were assessed at screening and the beginning and end of each period. For each cohort, masked safety data was reviewed by a Safety Committee prior to allowing dose escalation of the next cohort. A total of 2856 doses (102 drops/subject) were administered over 1148 total subject study days (41 study days/subject) in 56 eyes. All subjects in all cohorts completed the study, and no study drug doses were missed.

rats = test: CNS effects in rats, single bolus IV injection; assay type: in vivo, rat
Excerpt: No effect on any other parameters was observed.

[9] = Acute toxicity, single dose IV in rats; settings: rat, in vivo
Protocol: 4. Acute Toxicity Studies: For single dose IV in rats, the no observable adverse effect level (NOAEL) was 10 mg/kg IV. For escalating single dose IV and 7-day repeated dose with TK (toxicokinetics) in dogs, the NOAEL was 10 mg/kg IV. For single dose ocular tolerance in rabbits, the NOAEL was 3.5 mg/eye/3× per day (10%).

mini-pigs = test: Pilot mini-pig dermal study; assay type: in vivo; settings: DMSO, gel, ointment, lotion at 1%; TID 7 days, 10 mg/cm^2 on about 50 cm^2
Excerpt: (§1) One pig/dose formulation was used. In-life PK analysis was completed.

[10] = Pilot mini-pig dermal study; assay type: in vivo; settings: minipig, plasma, topical, 10 mg/cm^2 of 1% formulation over approximately 50 cm^2; all groups; below LLOQ; read-out: Plasma levels
Excerpt: as §1

[11] = in vivo
[12] = 0.5 hour postdose, ocular 1 mg/eye
[13] = 0.5 hour postdose, ocular 1 mg/eye, male Sprague Dawley, above upper limit of quantification
[14] = 2 hours postdose, ocular 1 mg/eye
[15] = 8 hours postdose, ocular 1 mg/eye
[16] = 24 hours postdose, ocular 1 mg/eye
[17] = rabbit, in vivo, topical or ocular, 1.05 mg
[18] = single instillation of 0.1, 1.0 or 3.0% dose strength
[19] = in vivo, topical or ocular, 1.05 mg

SMILES: CS(=O)(=O)c1cccc(C[C@H](NC(=O)c2c(Cl)cc3c(c2Cl)CCN(C(=O)c2ccc4ccoc4c2)C3)C(=O)O)c1 [Compound 12]
- NOAEL at 13 week (in vivo [1]): 30 mg/kg
- solubility (Solubility studies; ethanol/glycol/transcutol solution): 10 % (w/w)
- solubility (Solubility studies; water/glycol/transcutol solution): 2 % (w/w)
- AUC (in vivo [2]; 0.105 mg): 18900 ng·h/mL
- Cmax (in vivo [2]; 0.105 mg): 34000 ng/mL
- AUC (in vivo [2]; 0.35 mg): 18900 ng·h/mL
- Cmax (in vivo [2]; 0.35 mg): 21500 ng/mL
- Compound 12 Concentration, Aqueous humor ([3]; 0.5 hour after administration): 1770 ng Equivalents [^14C]-Compound 12/g tissue
- Compound 12 Concentration, Conjunctiva (bulbar) ([3]; 0.5 hour after administration): 31500 ng Equivalents [^14C]-Compound 12/g tissue
- Compound 12 Concentration, Conjunctiva (palpebral) ([3]; 0.5 hour after administration): 26300 ng Equivalents [^14C]-Compound 12/g tissue
- Compound 12 Concentration, Cornea ([3]; 0.5 hour after administration): 17150 ng Equivalents [^14C]-Compound 12/g tissue
- Compound 12 Concentration, Iris-ciliary body ([3]; 0.5 hour after administration): 17550 ng Equivalents [^14C]-Compound 12/g tissue
- Compound 12 Concentration, Lens ([3]; 0.5 hour after administration): 38.8 ng Equivalents [^14C]-Compound 12/g tissue
- Compound 12 Concentration, Optic Nerve ([3]; 0.5 hour after administration): 796 ng Equivalents [^14C]-Compound 12/g tissue
- Compound 12 Concentration, Retina and Choroid (with RPE) ([3]; 0.5 hour after administration): 510 ng Equivalents [^14C]-Compound 12/g tissue
- Compound 12 Concentration, Sclera ([3]; 0.5 hour after administration): 2750 ng Equivalents [^14C]-Compound 12/g tissue
- Compound 12 Concentration, Vitreous Humor ([3]; 0.5 hour after administration): 1330 ng Equivalents [^14C]-Compound 12/g tissue
- radioactivity concentration, eye [3, 12]: 18100 ng equivalents [^14C]-Compound 12/g
- radioactivity concentration, kidney [3, 12]: 151 ng equivalents [^14C]-Compound 12/g
- radioactivity concentration, liver [3, 12]: 272 ng equivalents [^14C]-Compound 12/g
- radioactivity concentration, uveal tract [3, 12]: 9330 ng equivalents [^14C]-Compound 12/g
- radioactivity concentration, esophageal contents [3, 13]: 399000 ng equivalents [^14C]-Compound 12/g
- radioactivity concentration, nasal turbinates [3, 13]: 352000 ng equivalents [^14C]-Compound 12/g
- radioactivity concentration, small intestinal contents [3, 13]: 349000 ng equivalents [^14C]-Compound 12/g
- decline of radioactivity concentration, esophageal contents [3, 14]: ~100 fold
- decline of radioactivity concentration, esophagus [3, 14]: approximately 50 fold
- Compound 12 Concentration, Aqueous humor ([3]; 4.0 hours after administration): 116 ng Equivalents [^14C]-Compound 12/g tissue
- Compound 12 Concentration, Conjunctiva (bulbar) ([3]; 4.0 hours after administration): 4480 ng Equivalents [^14C]-Compound 12/g tissue
- Compound 12 Concentration, Conjunctiva (palpebral) ([3]; 4.0 hours after administration): 21830 ng Equivalents [^14C]-Compound 12/g tissue
- Compound 12 Concentration, Cornea ([3]; 4.0 hours after administration): 1346 ng Equivalents [^14C]-Compound 12/g tissue
- Compound 12 Concentration, Iris-ciliary body ([3]; 4.0 hours after administration): 500 ng Equivalents [^14C]-Compound 12/g tissue
- Compound 12 Concentration, Lens ([3]; 4.0 hours after administration): 9.69 ng Equivalents [^14C]-Compound 12/g tissue
- Compound 12 Concentration, Optic Nerve ([3]; 4.0 hours after administration): 0 ng Equivalents [^14C]-Compound 12/g tissue
- Compound 12 Concentration, Retina and Choroid (with RPE) ([3]; 4.0 hours after administration): 46.7 ng Equivalents [^14C]-Compound 12/g tissue
- Compound 12 Concentration, Sclera ([3]; 4.0 hours after administration): 387 ng Equivalents [^14C]-Compound 12/g tissue
- Compound 12 Concentration, Vitreous Humor ([3]; 4.0 hours after administration): 183 ng Equivalents [^14C]-Compound 12/g tissue
- radioactivity concentration, cecum contents [3, 15]: 57600 ng equivalents [^14C]-Compound 12/g
- radioactivity concentration, large intestinal contents [3, 15]: 133000 ng equivalents [^14C]-Compound 12/g
- radioactivity concentration, uveal tract ([3]; 12 hours postdose, ocular 1 mg/eye): 610 ng equivalents [^14C]-Compound 12/g
- radioactivity concentration, cecum contents [3, 16]: 5870 ng equivalents [^14C]-Compound 12/g
- radioactivity concentration, large intestinal contents [3, 16]: 18000 ng equivalents [^14C]-Compound 12/g
- excretion in feces, of the administered radioactivity ([3]; IV administration 10 mg/kg): ~95%
- excretion in feces, of the administered radioactivity ([3]; ocular administration 1 mg/eye): approximately 60%
- Urinary excretion, of the administered radioactivity ([3]; ocular or IV): up to 2%
- binding to melanin ([3]; pigmented vs albino rats): did not preferentially bind to melanin
- levels in conjunctiva/cornea ([3]; rat, for 16 hrs): > 100 nM
- metabolites in pooled plasma, urine and fecal homogenates ([3]; up to 168 hrs, topical ocular or IV dose): no metabolites were isolated
- AUC [4, 17]: 183000 ng·h/mL
- Cmax [4, 17]: 314000 ng/mL
- time of return of tear concentration to baseline [4, 18]: ≤ 4 h
- time to maximal mean tear concentration [4, 18]: ≤ 30 min
- levels in conjunctiva/cornea ([5]; dog, for 16 hrs): greater than 1 micromolar
- metabolites in pooled plasma, urine and fecal homogenate ([5]; up to 168 hrs post-dose, 3 mg/eye or 3 mg/dog): no metabolites detected
- AUC (in vivo [6]; 0.105 mg): 5.19 ± 5.39 ng·h/mL
- Cmax (in vivo [6]; 0.105 mg): 11.7 ± 8.8 ng/mL
- AUC (in vivo [6]; 0.35 mg): 7.35 ± 1.52 ng·h/mL
- Cmax (in vivo [6]; 0.35 mg): 13.1 ± 2.12 ng/mL
- AUC [7, 19]: 22.9 ± 10.1 ng·h/mL
- Cmax [7, 19]: 38.9 ± 19.7 ng/mL
- time of decline of plasma concentration to baseline levels ([7]; topical ocular instillation): about 4 hours
- time of maximum plasma concentration post-dose ([7]; topical ocular instillation): about 0.25 hrs
- effects on electrocardiography or hemodynamic parameters (dogs (beagles)): No effects
- Compound 12 in dermis [8]: greater than 10 micromolar
- dose penetration [8]: 2-4%
- NOAEL (dogs): 1.05 mg/eye/3× per day
- mouse bone marrow micronucleus assay (CD-1 (ICR) BR mice): negative
- deaths, discontinuations, serious or severe AEs considered related to drug (healthy adults; 0.1%, 0.3%, 1% and 5% dose strengths, any dose regimen): No deaths, discontinuations, serious or severe ocular or non-ocular AEs
- overall safety and tolerability, topical ocular instillation (healthy adults; dose strengths up to 5% TID): safe and well-tolerated
- localized ocular irritation or infection (healthy adults; human, in vivo): no evidence of localized ocular irritation or infection
- Blood pressure, heart rate, respiratory rate, temperature, body weight, and EKG results (healthy adults; throughout the trial): within normal ranges
- Total lymphocyte count, CD3, CD4, and CD8 cell counts (healthy adults; throughout the trial): within normal ranges with no evidence of lymphocyte or neutrophil suppression
- CNS observation (rats; 10.0 mg/kg IV, 1 minute to 6 hours postdose in 2/6 animals at each time point): Transient miosis
- effect on any other CNS parameters (rats; single bolus IV): No effect
- NOAEL [9]: 10 mg/kg
- toxicity, dermal formulations (mini-pigs): No toxicity
- concentration at 7 days [10]: < 0.5 ng/mL
- ocular dose absorbed into the systemic circulation [11]: 6.9-32%
